The test system of data set [1] is SR. As to the kind of experiment: Induction of cell cycle arrest in human SR cells assessed as increase in accumulation at G1/S phase at 100 nM incubated for 24 hrs. The class given is functional, cell-based.
Data set [2] has as its system SR. As to the kind of experiment: Potency index, ratio of alectinib IC50 to test compound IC50 for antiproliferative activity against ALK positive human SR cells. The class given is functional.
Data set [3] deals with T1, Protein cereblon/ALK tyrosine kinase receptor (Homo sapiens, UniProt Q9UM73+Q96SW2). In words: Protac activity at CRBN/ALK in human SR cells assessed as protein abundance at 0.05 nM by Western blot analysis (reference value: 1). In kind it is cell-based. (In general: A western blot detects proteins with antibodies after separation by electrophoresis.)
Target sequence in this assay (Q96SW2 whole entry partner): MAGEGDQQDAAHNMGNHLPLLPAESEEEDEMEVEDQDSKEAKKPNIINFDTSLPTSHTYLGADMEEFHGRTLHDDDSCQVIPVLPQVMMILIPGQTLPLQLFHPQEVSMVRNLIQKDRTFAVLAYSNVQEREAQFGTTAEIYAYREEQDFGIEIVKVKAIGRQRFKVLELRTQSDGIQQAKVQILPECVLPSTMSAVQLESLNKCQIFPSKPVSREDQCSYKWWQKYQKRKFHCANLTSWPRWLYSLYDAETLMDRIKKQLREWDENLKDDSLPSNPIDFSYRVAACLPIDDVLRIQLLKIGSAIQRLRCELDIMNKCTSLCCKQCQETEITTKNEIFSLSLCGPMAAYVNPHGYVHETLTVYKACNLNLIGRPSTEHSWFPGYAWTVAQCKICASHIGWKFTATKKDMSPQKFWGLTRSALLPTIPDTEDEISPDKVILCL
Target sequence in this assay (Q9UM73 19-1620 limits assumed): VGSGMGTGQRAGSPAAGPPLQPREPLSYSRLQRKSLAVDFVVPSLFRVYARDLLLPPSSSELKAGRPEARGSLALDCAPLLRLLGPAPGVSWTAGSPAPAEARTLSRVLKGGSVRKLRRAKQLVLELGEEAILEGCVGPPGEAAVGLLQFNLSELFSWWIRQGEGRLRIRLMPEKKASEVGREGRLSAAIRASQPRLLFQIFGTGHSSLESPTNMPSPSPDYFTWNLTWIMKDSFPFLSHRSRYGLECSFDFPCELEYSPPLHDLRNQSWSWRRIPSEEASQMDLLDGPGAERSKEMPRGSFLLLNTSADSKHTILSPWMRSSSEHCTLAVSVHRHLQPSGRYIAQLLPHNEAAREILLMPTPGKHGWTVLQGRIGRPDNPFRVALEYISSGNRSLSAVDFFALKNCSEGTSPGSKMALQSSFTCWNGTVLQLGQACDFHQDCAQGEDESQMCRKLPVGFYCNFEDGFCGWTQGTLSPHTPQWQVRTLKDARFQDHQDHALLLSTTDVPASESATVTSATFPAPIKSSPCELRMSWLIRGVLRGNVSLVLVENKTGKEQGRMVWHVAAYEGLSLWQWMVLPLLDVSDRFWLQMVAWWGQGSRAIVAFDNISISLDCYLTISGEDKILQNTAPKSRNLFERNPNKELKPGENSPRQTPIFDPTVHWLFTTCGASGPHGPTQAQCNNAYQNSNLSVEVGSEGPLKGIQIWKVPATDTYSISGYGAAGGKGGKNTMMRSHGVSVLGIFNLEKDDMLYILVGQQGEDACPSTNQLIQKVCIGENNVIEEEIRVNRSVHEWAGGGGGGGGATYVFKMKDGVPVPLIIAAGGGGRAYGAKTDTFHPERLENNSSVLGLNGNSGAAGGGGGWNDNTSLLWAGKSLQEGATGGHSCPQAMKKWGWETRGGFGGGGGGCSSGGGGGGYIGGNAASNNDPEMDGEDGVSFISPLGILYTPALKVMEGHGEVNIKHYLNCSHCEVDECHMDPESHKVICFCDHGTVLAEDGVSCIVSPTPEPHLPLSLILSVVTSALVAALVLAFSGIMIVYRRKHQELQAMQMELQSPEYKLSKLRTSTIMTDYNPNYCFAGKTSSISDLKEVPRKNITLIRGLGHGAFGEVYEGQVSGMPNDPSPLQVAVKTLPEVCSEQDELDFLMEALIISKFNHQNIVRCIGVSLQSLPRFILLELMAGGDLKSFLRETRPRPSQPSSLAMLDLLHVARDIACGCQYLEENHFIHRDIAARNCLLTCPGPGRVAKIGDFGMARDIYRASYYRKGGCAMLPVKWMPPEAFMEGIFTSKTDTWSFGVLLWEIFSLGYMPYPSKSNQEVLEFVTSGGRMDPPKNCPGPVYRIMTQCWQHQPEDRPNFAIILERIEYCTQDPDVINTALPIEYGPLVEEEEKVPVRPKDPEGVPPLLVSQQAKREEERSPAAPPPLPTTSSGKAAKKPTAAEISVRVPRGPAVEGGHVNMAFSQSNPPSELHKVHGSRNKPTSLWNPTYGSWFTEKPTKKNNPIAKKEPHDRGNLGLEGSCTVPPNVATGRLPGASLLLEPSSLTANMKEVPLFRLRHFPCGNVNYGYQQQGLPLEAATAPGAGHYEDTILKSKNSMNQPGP
The target in data set [4] is T1, Protein cereblon/ALK tyrosine kinase receptor. In words: Protac activity at CRBN/ALK in human SR cells assessed as increase in ALK degradation at 50 nM in presence of MLN4924/MG132 by Western blot analysis. In kind it is cell-based.
Target sequence in this assay (Q96SW2 whole entry partner): as the sequence (Q96SW2 whole entry partner) above
Target sequence in this assay (Q9UM73 19-1620 limits assumed): as the sequence (Q9UM73 19-1620 limits assumed) above
Data set [5] has the same target. In words: Protac activity at CRBN/ALK in human SR cells assessed as protein abundance at 50 nM by Western blot analysis (reference value: 1). The class given is cell-based.
Target sequence in this assay (Q96SW2 whole entry partner): as the sequence (Q96SW2 whole entry partner) above
Target sequence in this assay (Q9UM73 19-1620 limits assumed): as the sequence (Q9UM73 19-1620 limits assumed) above
Data set [6] concerns the target T2, ALK tyrosine kinase receptor (Homo sapiens, UniProt Q9UM73). As to the kind of experiment: Inhibition of ALK phosphorylation in human SR cells at 0.5 nM. The class given is cell-based.
Target sequence in this assay (Q9UM73 19-1620 limits assumed): as above
The target of data set [7] is T1, Protein cereblon/ALK tyrosine kinase receptor. As to the kind of experiment: Protac activity at CRBN/ALK in human SR cells assessed as induction of ALK degradation by Western blot analysis. In kind it is cell-based.
Target sequence in this assay (Q9UM73 whole entry): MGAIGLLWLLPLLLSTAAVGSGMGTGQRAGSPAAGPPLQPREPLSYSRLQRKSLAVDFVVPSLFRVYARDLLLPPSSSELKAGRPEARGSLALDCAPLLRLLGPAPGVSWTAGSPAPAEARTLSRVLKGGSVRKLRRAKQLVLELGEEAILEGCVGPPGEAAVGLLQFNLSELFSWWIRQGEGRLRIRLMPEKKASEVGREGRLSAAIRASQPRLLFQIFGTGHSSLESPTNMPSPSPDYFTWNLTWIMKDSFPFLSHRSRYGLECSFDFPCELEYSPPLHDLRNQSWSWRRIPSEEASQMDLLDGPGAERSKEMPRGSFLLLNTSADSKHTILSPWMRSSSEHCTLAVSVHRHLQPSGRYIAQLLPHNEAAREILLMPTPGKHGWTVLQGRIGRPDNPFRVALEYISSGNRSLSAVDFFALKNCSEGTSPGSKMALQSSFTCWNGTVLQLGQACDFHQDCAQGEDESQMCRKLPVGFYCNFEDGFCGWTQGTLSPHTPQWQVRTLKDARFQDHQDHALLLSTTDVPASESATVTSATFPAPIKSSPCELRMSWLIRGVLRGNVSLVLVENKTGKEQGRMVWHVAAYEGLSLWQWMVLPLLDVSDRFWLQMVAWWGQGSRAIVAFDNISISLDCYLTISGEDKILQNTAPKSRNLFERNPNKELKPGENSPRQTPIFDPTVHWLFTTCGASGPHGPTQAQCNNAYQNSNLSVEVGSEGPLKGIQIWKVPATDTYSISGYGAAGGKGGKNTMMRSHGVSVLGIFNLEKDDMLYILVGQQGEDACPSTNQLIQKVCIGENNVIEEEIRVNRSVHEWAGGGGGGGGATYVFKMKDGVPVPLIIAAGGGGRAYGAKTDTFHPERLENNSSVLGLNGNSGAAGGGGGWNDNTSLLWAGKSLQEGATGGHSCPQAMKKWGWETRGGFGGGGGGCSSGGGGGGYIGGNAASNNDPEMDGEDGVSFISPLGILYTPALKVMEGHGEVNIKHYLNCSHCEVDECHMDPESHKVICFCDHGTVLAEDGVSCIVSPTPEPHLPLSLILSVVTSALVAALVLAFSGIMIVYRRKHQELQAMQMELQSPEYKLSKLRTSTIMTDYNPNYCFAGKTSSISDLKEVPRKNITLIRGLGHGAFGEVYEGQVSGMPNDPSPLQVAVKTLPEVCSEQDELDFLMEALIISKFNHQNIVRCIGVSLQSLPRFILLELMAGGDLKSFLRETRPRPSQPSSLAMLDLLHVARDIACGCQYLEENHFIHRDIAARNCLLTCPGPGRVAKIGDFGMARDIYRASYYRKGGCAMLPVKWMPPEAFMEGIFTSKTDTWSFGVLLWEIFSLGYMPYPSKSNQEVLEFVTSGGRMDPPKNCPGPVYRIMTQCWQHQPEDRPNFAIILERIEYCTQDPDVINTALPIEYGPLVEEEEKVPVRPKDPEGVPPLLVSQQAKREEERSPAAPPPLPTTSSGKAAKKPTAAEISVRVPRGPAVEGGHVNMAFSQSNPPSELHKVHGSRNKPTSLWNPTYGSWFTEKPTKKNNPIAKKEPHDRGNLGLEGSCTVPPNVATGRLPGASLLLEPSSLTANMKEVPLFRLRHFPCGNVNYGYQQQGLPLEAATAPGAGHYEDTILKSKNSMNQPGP
Target sequence in this assay (Q96SW2 whole entry): as the sequence (Q96SW2 whole entry partner) above
Data set [8] has the same target. In words: Protac activity at CRBN/ALK in human SR cells assessed as protein abundance at 500 nM by Western blot analysis (reference value: 1). In kind it is cell-based.
Target sequence in this assay (Q96SW2 whole entry partner): as above
Target sequence in this assay (Q9UM73 19-1620 limits assumed): as the sequence (Q9UM73 19-1620 limits assumed) above
Data set [9] deals with SR. In words: Potency index, ratio of ceritinib IC50 to test compound IC50 for antiproliferative activity against ALK positive human SR cells. The class given is functional.
Data set [10] has as its target T1, Protein cereblon/ALK tyrosine kinase receptor. In words: Protac activity at CRBN/ALK in human SR cells assessed as induction of ALK degradation at 0.05 to 500 nM by Western blot analysis relative to control. The class given is cell-based. Conditions: dose 0.05-500 nM.
Target sequence in this assay (Q96SW2 whole entry partner): as the sequence (Q96SW2 whole entry partner) above
Target sequence in this assay (Q9UM73 19-1620 limits assumed): as the sequence (Q9UM73 19-1620 limits assumed) above
The test system of data set [11] is SR. In words: Antiproliferative activity against ALK positive human SR cells. In kind it is functional, cell-based.
Data set [12] addresses T1, Protein cereblon/ALK tyrosine kinase receptor. As to the kind of experiment: Protac activity at CRBN/ALK in human SR cells assessed as protein abundance at 5 nM by Western blot analysis (reference value: 1). The class given is cell-based.
Target sequence in this assay (Q96SW2 whole entry partner): as the sequence (Q96SW2 whole entry partner) above
Target sequence in this assay (Q9UM73 19-1620 limits assumed): as the sequence (Q9UM73 19-1620 limits assumed) above
The target in data set [13] is T2, ALK tyrosine kinase receptor. In words: Inhibition of ALK (unknown origin).
Target sequence in this assay (Q9UM73 whole entry): as the sequence (Q9UM73 whole entry) above
Data set [14] addresses T1, Protein cereblon/ALK tyrosine kinase receptor. As to the kind of experiment: Protac activity at CRBN/ALK in human SR cells assessed as increase in ALK degradation at 50 nM in presence of MG132 by Western blot analysis. In kind it is cell-based.
Data set [15] concerns SR. In words: Induction of cell cycle arrest in human SR cells assessed as increase in accumulation at S phase at 100 nM incubated for 24 hrs. The class given is functional, cell-based.
Data set [16] has as its target T2, ALK tyrosine kinase receptor. As to the kind of experiment: Inhibition of ALK in human SR cells assessed as reduction in STAT3 phosphorylation at 50 nM. The class given is cell-based.
Target sequence in this assay (Q9UM73 19-1620 limits assumed): as the sequence (Q9UM73 19-1620 limits assumed) above
Data set [17] concerns the target T1, Protein cereblon/ALK tyrosine kinase receptor. In words: Protac activity at CRBN/ALK in human SR cells assessed as protein abundance at 0.5 nM by Western blot analysis (reference value: 1). The class given is cell-based.
For data set [18] the target is unchanged. In words: Protac activity at CRBN/ALK in human SR cells assessed as increase in ALK degradation at 200 nM by Western blot analysis relative to control. In kind it is cell-based.
For data set [19] the target is unchanged. In words: Protac activity at CRBN/ALK in human SR cells assessed as increase in ALK degradation at 500 nM by Western blot analysis. In kind it is cell-based.
A short description of data set [20]: Cmax in rat at 2 mg/kg, ip. The class given is ADME, organism-based. Details: route intraperitoneal, dose 2 mg/kg. Conditions: in vivo.
Data set [21] is described as follows: Toxicity in rat at 10 mg/kg, po assessed as adverse effect. In kind it is organism-based. The note with it: in vivo.
Data set [22] can be described thus: Plasma concentration in rat at 10 mg/kg, po measured after 4 hrs. In kind it is ADME, organism-based.
The nature of data set [23]: Oral bioavailability in rat at 10 mg/kg. The class given is ADME, organism-based. Conditions: in vivo.
Data set [24] in a line: Stability in liver microsomes (unknown origin). In kind it is ADME, Microsome. On the technique in general: Liver microsomes are vesicles of endoplasmic reticulum, rich in cytochrome P450 enzymes.

These results are taken from ChEMBL document CHEMBL4814007, “Structure-based discovery of SIAIS001 as an oral bioavailability ALK degrader constructed from Alectinib” (Eur J Med Chem, 2021).

One may read the DC50 as the concentration giving 50% degradation. The term Emax denotes the maximal effect, on the per cent scale that the assay sets. One may read the IC50 as the midpoint of a concentration-inhibition curve. A high value points to a need for much substance. Broadly, the Cmax is the peak of the concentration-time curve. The term bioavailability denotes the share of a dose that reaches the circulation, judged against a reference dose that is usually intravenous. A high value points to good availability.

Activity calls are given as the source filed them. The rule behind the calls is not given here.

For the compound `CCc1cc2c(cc1N1CCC(N3CCN(C(=O)CNc4cccc5c4CN(C4CCC(=O)NC4=O)C5=O)CC3)CC1)C(C)(C)c1[nH]c3cc(C#N)ccc3c1C2=O` (stereo unspecified), the outcome (with SR [1]; in [19]) was Active. The results for the Ratio with SR [2] and with SR [9] were 6 and 5, respectively. Besides, the Activity in data set [3] is 0.9; in data set [5], 0.24; in [8], 0.27; in data set [12] it was 0.48; in [17], 0.67; in data set [18], greater than 50%. Further, the outcome (in data set [4]; in data set [14]; with SR [15]) was inactive. For the same compound, the inhibition entry in data set [6] and in [16] was “inactive” in each case. Moreover, in data set [7], the DC50 is 6300 nM. In addition, in data set [10], the Emax stood at 87.7%. The IC50 is 0.5 nM in the data set with SR [11] and 4.7 nM in data set [13].

As to `CCc1cc2c(cc1N1CCC(N3CCN(CCCC#Cc4cccc5c4CN(C4CCC(=O)NC4=O)C5=O)CC3)CC1)C(C)(C)c1[nH]c3cc(C#N)ccc3c1C2=O` (stereo unspecified), the result (with SR [1]; in data set [19]) was Active. Further, the highest level in [20] (Cmax) was 83.5 ng/mL. Also, the Activity result is “Non-Toxic” in data set [21]; 1.03 in data set [3]; 0.37 in data set [5]; 0.37 in data set [8]; 0.56 in data set [12]; 0.92 in data set [17]. In [22], this compound returned a concentration at 4 h of 100 ng/mL. Besides, the outcome (in data set [4]; in data set [14]; with SR [15]) was inactive. This compound also showed a bioavailability in [23] of 16%. Also, the inhibition entry in data set [6] and in data set [16] was “Active” throughout. The DC50 in [7] was found to be 3900 nM. Further, the Ratio in the data set with SR [9] is 5. Moreover, in [24], the Stabilty result was “Stable”. Moreover, in data set [10], the Emax stood at 70.3%. In addition, the IC50 with SR [11] amounted to 0.9 nM; in data set [13] it was 3.3 nM.
